Data published in publication PMC3530961 (Journal of Medicinal Chemistry, 2012).

Columns and labels:
P. falciparum 3D7 = experiment: growth inhibition of P. falciparum, SYBR green assay; format: cell-based, Plasmodium falciparum
recombinant PfTMPK [1] = molecular target: T1, recombinant PfTMPK (Plasmodium falciparum, UniProt Q8I4S1); experiment: PfTMPK inhibition, coupled assay with pyruvate kinase and lactate dehydrogenase; format: biochemical
T1 sequence (Q8I4S1 1-210): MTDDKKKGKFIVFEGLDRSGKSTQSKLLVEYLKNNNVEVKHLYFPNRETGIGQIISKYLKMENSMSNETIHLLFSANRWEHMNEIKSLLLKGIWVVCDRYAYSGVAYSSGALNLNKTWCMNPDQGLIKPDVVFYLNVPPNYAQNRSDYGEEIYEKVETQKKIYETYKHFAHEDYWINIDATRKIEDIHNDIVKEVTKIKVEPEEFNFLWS

intrinsic clearance = format: in vitro ADME, mouse; settings: for microsomal stability (CLi): female CD1 mouse liver microsomes, 0.5 µM compound; for microsomal stability / in vitro DMPK properties, in words: hepatic microsomes
[2] = plasma protein binding by equilibrium dialysis; format: in vitro ADME, mouse; settings: for plasma protein binding (% bound): female CD1 mouse plasma, equilibrium dialysis 5 h, 37 °C
recombinant PfTMPK [3] = molecular target: T1, recombinant PfTMPK; settings: read-out: Km of PfTMPK for TMP; substrate constant; cited from earlier work

Row | SMILES | activity against the parasite, in words (P. falciparum 3D7) | inhibitory activity against PfTMPK, in words (recombinant PfTMPK [1]) | further results
1 | Cc1cn([C@@H]2C[C@H](O)[C@@H](CNC(=O)Nc3ccc(OCc4cccc(Cl)c4)cc3)O2)c(=O)[nH]c1=O [Compound 85, N-(5′-Deoxy-α-thymidin-5′-yl)-N′-(4-(3-chlorobenzyloxy)phenyl)urea] | sub-micromolar activity |  | 
2 | COc1ccc(COc2ccc(NC(=O)NC[C@H]3O[C@H](n4cc(C)c(=O)[nH]c4=O)C[C@@H]3O)cc2)cc1 [Compound 87, N-(5′-Deoxy-α-thymidin-5′-yl)-N′-(4-(4-methyoxybenzyloxy)phenyl)urea] | sub-micromolar activity |  | 
3 | Cc1cn([C@H]2C[C@H](O)[C@@H](CNC(=O)c3ccc4ccccc4c3)O2)c(=O)[nH]c1=O [Compound 36] |  | no or very low inhibitory activity | 
4 | Cc1cn([C@H]2C[C@H](O)[C@@H](CNS(=O)(=O)c3ccc4ccccc4c3)O2)c(=O)[nH]c1=O [Compound 35] |  | no or very low inhibitory activity | 
5 | COc1ccc(NC(=O)NC[C@H]2O[C@H](n3cc(C)c(=O)[nH]c3=O)C[C@@H]2O)cc1 [Compound 26] |  |  | increase in potency against the parasite compared to compound 17 (P. falciparum 3D7; ratio of EC50 values versus starting compound 17): 10 fold
6 | Cc1cn([C@H]2C[C@H](O)[C@@H](CNC(=O)c3ccc([N+](=O)[O-])cc3)O2)c(=O)[nH]c1=O [Compound 37] |  | no or very low inhibitory activity | 
7 | Cc1cn([C@H]2C[C@H](O)[C@@H](CNCc3ccc([N+](=O)[O-])cc3)O2)c(=O)[nH]c1=O [Compound 38] |  | no or very low inhibitory activity | 
8 | Cc1cn([C@@H]2C[C@H](O)[C@@H](CNC(=O)Nc3ccc(OCc4ccccc4Cl)cc3)O2)c(=O)[nH]c1=O [Compound 84, N-(5′-Deoxy-α-thymidin-5′-yl)-N′-(4-(2-chlorobenzyloxy)phenyl)urea] | sub-micromolar activity |  | microsomal stability (CLi) (intrinsic clearance): 6 mL/min/g; microsomal stability / in vitro DMPK properties, in words (intrinsic clearance): rapid turnover; plasma protein binding (% bound) [2]: 94.1 % bound
9 | Cc1cn([C@@H]2C[C@H](O)[C@@H](CNC(=O)c3ccc([N+](=O)[O-])cc3)O2)c(=O)[nH]c1=O [Compound 12] |  | no or very low inhibitory activity | 
10 | Cc1cn([C@@H]2C[C@H](O)[C@@H](CNS(=O)(=O)c3ccc4ccccc4c3)O2)c(=O)[nH]c1=O [Compound 10] |  | no or very low inhibitory activity | 
11 | Cc1cn([C@@H]2C[C@H](O)[C@@H](CNC(=O)Nc3ccc(-c4ccccc4)cc3)O2)c(=O)[nH]c1=O [Compound 57] | sub-micromolar activity |  | microsomal stability (CLi) (intrinsic clearance): 1.9 mL/min/g; microsomal stability / in vitro DMPK properties, in words (intrinsic clearance): good in vitro DMPK properties; plasma protein binding (% bound) [2]: 92.0 % bound
12 | Cc1cn([C@H]2C[C@H](O)[C@@H](CNS(=O)(=O)c3ccc([N+](=O)[O-])cc3)O2)c(=O)[nH]c1=O [Compound 34] |  | no or very low inhibitory activity | 
13 | Cc1cn([C@H]2C[C@H](O)[C@@H](CNC(=O)Nc3ccc(OCc4ccccc4Cl)cc3)O2)c(=O)[nH]c1=O [Compound 89] | sub-micromolar activity |  | drop in activity of β-derivative relative to α-derivative 84 (P. falciparum 3D7): 20 fold
14 | Cc1cn([C@@H]2C[C@H](O)[C@@H](CNC(=O)Nc3ccc(OCc4ccc(Cl)cc4)cc3)O2)c(=O)[nH]c1=O [Compound 86, N-(5′-Deoxy-α-thymidin-5′-yl)-N′-(4-(4-chlorobenzyloxy)phenyl)urea] | sub-micromolar activity |  | 
15 | Cc1cn([C@@H]2C[C@H](O)[C@@H](CNC(=O)Nc3ccc(N4CCCCC4)cc3)O2)c(=O)[nH]c1=O [Compound 63] | sub-micromolar activity |  | microsomal stability (CLi) (intrinsic clearance): 0.5 mL/min/g; microsomal stability / in vitro DMPK properties, in words (intrinsic clearance): good in vitro DMPK properties; unbound fraction in plasma, in words [2]: particularly large unbound fraction; plasma protein binding (% bound) [2]: 52.3 % bound
16 | Cc1cn([C@@H]2C[C@H](O)[C@@H](CNC(=O)Nc3ccc(Oc4ccccc4)cc3)O2)c(=O)[nH]c1=O [Compound 66] | sub-micromolar activity |  | microsomal stability (CLi) (intrinsic clearance): 1.8 mL/min/g; microsomal stability / in vitro DMPK properties, in words (intrinsic clearance): good in vitro DMPK properties; plasma protein binding (% bound) [2]: 90.5 % bound
17 | Cc1cn([C@@H]2C[C@H](O)[C@@H](CNC(=O)c3ccc4ccccc4c3)O2)c(=O)[nH]c1=O [Compound 11] |  | no or very low inhibitory activity | 
18 | Cc1cn([C@H]2C[C@H](O)[C@@H](COP(=O)(O)O)O2)c(=O)[nH]c1=O [TMP, thymidine monophosphate] |  |  | Km (recombinant PfTMPK [3]): 11 µM
19 | Cc1cn([C@@H]2C[C@H](O)[C@@H](CNC(=O)Nc3ccc(OCc4ccccc4)cc3)O2)c(=O)[nH]c1=O [Compound 60] | sub-micromolar activity |  | microsomal stability (CLi) (intrinsic clearance): 3 mL/min/g; microsomal stability / in vitro DMPK properties, in words (intrinsic clearance): good in vitro DMPK properties; plasma protein binding (% bound) [2]: 81.2 % bound
20 | Cc1cn([C@@H]2C[C@H](O)[C@@H](CNS(=O)(=O)c3ccc([N+](=O)[O-])cc3)O2)c(=O)[nH]c1=O [Compound 9] |  | no or very low inhibitory activity | 
21 | Cc1cn([C@@H]2C[C@H](O)[C@@H](CNCc3ccc([N+](=O)[O-])cc3)O2)c(=O)[nH]c1=O [Compound 13] |  | no or very low inhibitory activity | 
